SMILES strings stand for the structures.

What is called melting point is the temperature, or range, at which the solid turns liquid. Turning to `CC(C)(O)c1cc(Cl)c(CNC(=O)c2cccnc2Oc2cccnc2)s1` [Example 44, N-[3-Chloro-5-(1-hydroxy-1-methyl-ethyl)-thiophen-2-ylmethyl]-2-(pyridin-3-yloxy)-nicotinamide], the melting point was in the range of 74 to 76 °C.
The result for `CC(NC(=O)c1cccnc1Oc1cccnc1)c1cccs1` (stereo not drawn) [Example 45, 2-(Pyridin-3-yloxy)-N-(1-thiophen-2yl-ethyl)-nicotinamide] reads 90 to 92 °C; that for `Cc1ccc(CNC(=O)c2cccnc2Oc2cncc(Cl)c2)cc1` [Example 48, 2-(5-Chloro-pyridin-3-yloxy)-N-(4-methyl-benzyl)-nicotinamide], 119 to 121 °C; that for `CC(NC(=O)c1cccnc1Oc1cncc(Cl)c1)c1ccc(Cl)s1` (stereo not drawn) [Example 49, 2-(5-Chloro-pyridin-3-yloxy)-N-[1-(5-chloro-thiophen-2-yl)-ethyl]-nicotinamide], 110 to 112 °C.
The result for `Cc1ccc(C(C)NC(=O)c2cccnc2Oc2cncc(Cl)c2)s1` (stereo not drawn) [Example 50, 2-(5-Chloro-pyridin-3-yloxy)-N-[1-(5-methyl-thiophen-2-yl)-ethyl]-nicotinamide] reads 75 to 77 °C; that for `O=C(NCc1ccc(Cl)s1)c1cccnc1Oc1cncc(Cl)c1` [Example 51, 2-(5-Chloro-pyridin-3-yloxy)-N-(5-chloro-thiophen-2-ylmethyl)-nicotinamide], 125 to 127 °C.
The result for `Cc1ccc(CNC(=O)c2cccnc2Oc2cncc(Cl)c2)s1` [Example 52, 2-(5-Chloro-pyridin-3-yloxy)-N-(5-methyl-thiophen-2-ylmethyl)-nicotinamide] reads 81 to 83 °C.
`Cc1ccc(CNC(=O)c2cccnc2Oc2cncc(Cl)c2)o1` [Example 53, 2-(5-Chloro-pyridin-3-yloxy)-N-(5-methyl-furan-2-ylmethyl)-nicotinamide] came in with a melting point of 103 to 105 °C.
The result for `Cc1ccsc1CNC(=O)c1cccnc1Oc1cncc(Cl)c1` [Example 54, 2-(5-Chloro-pyridin-3-yloxy)-N-(3-methyl-thiophen-2-ylmethyl)-nicotinamide] reads 115 to 117 °C; that for `O=C(NCc1cc(Cl)cs1)c1cccnc1Oc1cncc(Cl)c1` [Example 55, 2-(5-Chloro-pyridin-3-yloxy)-N-(4-chloro-thiophen-2-ylmethyl)-nicotinamide], 94 to 96 °C.
The result for `O=C(NCc1cc2ccccc2s1)c1cccnc1Oc1cncc(Cl)c1` [Example 56, N-Benzo[b]thiophen-2-ylmethyl-2-(5-chloro-pyridin-3-yloxy)-nicotinamide] reads 160 to 162 °C.
With `O=C(NCc1ccc(Cl)o1)c1cccnc1Oc1cncc(Cl)c1` [Example 57, N-(5-Chloro-furan-2-ylmethyl)-2-(5-chloro-pyridin-3-yloxy)-nicotinamide] the figure was 111 to 113 °C; with `O=C(NCC1CCCCC1)c1cccnc1Oc1cncc(Cl)c1` [Example 58, 2-(5-Chloro-pyridin-3-yloxy)-N-cyclohexylmethyl-nicotinamide], 95 to 97 °C.
In turn, `CC(C)(O)c1ccc(CNC(=O)c2cccnc2Oc2cncc(Cl)c2)cc1` [Example 59, 2-(5-Chloro-pyridin-3-yloxy)-N-[4-(1-hydroxy-1-methyl-ethyl)-benzyl]-nicotinamide] displayed a melting point of 78 to 80 °C.
The result for `CC(C)(O)c1cc(Cl)c(CNC(=O)c2cccnc2Oc2cncc(Cl)c2)s1` [Example 60, N-[3-Chloro-5-(1-hydroxy-1-methyl-ethyl)-thiophen-2-ylmethyl]-2-(5-chloro-pyridin-3-yloxy)-nicotinamide] reads 72 to 74 °C.
The result for `O=C(NCc1ccc(Cl)s1)c1cccnc1Oc1ccc(F)cc1` [Example 61, N-(5-Chloro-thiophen-2-ylmethyl)-2-(4-fluoro-phenoxy)-nicotinamide] reads 91 to 93 °C; that for `O=C(NCc1cc(Cl)cs1)c1cccnc1Oc1ccc(F)cc1` [Example 62, N-(4-Chloro-thiophen-2-ylmethyl)-2-(4-fluoro-phenoxy)-nicotinamide], 99 to 101 °C; that for `O=C(NCc1ccc(Cl)o1)c1cccnc1Oc1ccc(F)cc1` [Example 63, N-(5-Chloro-furan-2-ylmethyl)-2-(4-fluoro-phenoxy)-nicotinamide], 116 to 118 °C.
With `O=C(NCc1cc2ccccc2s1)c1cccnc1Oc1ccc(F)cc1` [Example 65, N-Benzo[b]thiophen-2-ylmethyl-2-(4-fluoro-phenoxy)-nicotinamide] the figure was 109 to 111 °C; with `O=C(NCc1c(F)cc(F)cc1F)c1cccnc1Oc1ccc(F)cc1` [Example 67, 2-(4-Fluoro-phenoxy)-N-(2,4,6-trifluoro-benzyl)-nicotinamide], 128 to 130 °C; with `O=C(NCc1scc(Cl)c1Cl)c1cccnc1Oc1ccc(F)cc1` [Example 68, N-(3,4-Dichloro-thiophen-2-ylmethyl)-2-(4-fluoro-phenoxy)-nicotinamide], 132 to 134 °C.
In turn, `O=C(NCc1sccc1Cl)c1cccnc1Oc1ccc(F)cc1` [Example 69, N-(3-Chloro-thiophen-2-ylmethyl)-2-(4-fluoro-phenoxy)-nicotinamide] registered a melting point of 134 to 136 °C.
With `O=C(NCc1ccccc1Cl)c1cccnc1OCc1ccc(F)cc1` [Example 70, N-(2-Chloro-benzyl)-2-(4-fluoro-benzyloxy)-nicotinamide] the figure was 64 to 66 °C; with `O=C(NCc1ccc([N+](=O)[O-])cc1)c1cccnc1Oc1ccc(F)cc1` [Example 72, 2-(4-Fluoro-phenoxy)-N-(4-nitro-benzyl)-nicotinamide], 155 to 157 °C; with `O=C1Cc2cc(CNC(=O)c3cccnc3Oc3ccc(F)cc3)ccc2N1` [Example 73, 2-(4-Fluoro-phenoxy)-N-(2-oxo-2,3-dihydro-1H-indol-5-ylmethyl)-nicotinamide], 180 to 182 °C.
The result for `O=C(Nc1ccc2[nH]c(=O)oc2c1)c1cccnc1Oc1ccc(F)cc1` [Example 74, 2-(4-Fluoro-phenoxy)-N-(2-oxo-2,3-dihydro-benzooxazol-6-yl)-nicotinamide] reads 289 to 291 °C.
With `CCOC(=O)c1cc2cc(CNC(=O)c3cccnc3Oc3ccc(F)cc3)ccc2[nH]1` [Example 75, 5-({[2-(4-Fluoro-phenoxy)-pyridine-3-carbonyl]-amino}-methyl)-1H-indole-2-carboxylic acid ethyl ester] the figure was 185 to 187 °C; with `CC(C)(C)c1cc(CNC(=O)c2cccnc2Oc2ccc(F)cc2)cc(C(C)(C)C)c1O` [Example 76, N-[3,5-Di-tert-butyl-4-hydroxy-benzyl)-2-(4-fluoro-phenoxyl)nicotinamide], 45 to 47 °C; with `Cc1cc(CNC(=O)c2cccnc2Oc2ccc(F)cc2)cc(C)c1O` [Example 78, 2-(4-Fluoro-phenoxy)-N-(4-hydroxy-3,5-dimethyl-benzyl)-nicotinamide], 142 to 144 °C.
`CC(C)(O)c1ccc(CNC(=O)c2cccnc2Oc2ccc(F)cc2)o1` [Example 79, 2-(4-Fluoro-phenoxy)-N-[5-(1-hydroxy-1-methyl-ethyl)-furan-2-ylmethyl]-nicotinamide] displayed a melting point of 88 to 90 °C.

(Values after patent publication US6380218B1, “Nicotinamide derivatives” (Pfizer Inc, priority 1997, dated 2002).)
